Experimental data reported in patent publication US12538924B2, “Pesticidally active heterocyclic derivatives with sulfur containing substituents” (SYNGENTA CROP PROTECTION AG, priority 2019, dated 2026).

Key:
Format in all cases: in vivo
[1] = test system: Euschistus heros (Neotropical Brown Stink Bug); test: Euschistus heros (Neotropical Brown Stink Bug), sprayed soybean leaves; details: 120 h, application rate of 200 ppm, N2 nymphs on sprayed soybean leaves, 5 days after infestation, read-out: effect in at least one of the two categories (mortality or growth inhibition)
Description: Example B3: Euschistus heros (Neotropical Brown Stink Bug)
Soybean leaves on agar in 24-well microtiter plates were sprayed with aqueous test solutions prepared from 10'000 ppm DMSO stock solutions. After drying the leaves were infested with N2 nymphs. The samples were assessed for mortality and growth inhibition in comparison to untreated samples 5 days after infestation.

[2] = test system: Myzus persicae (Green Peach Aphid); test: Myzus persicae (Green Peach Aphid): Feeding/Contact Activity; details: foliar, 144 h, application rate of 200 ppm, aphid population of mixed ages on sprayed sunflower leaf discs, 6 days after infestation
Description: Example B6: Myzus persicae (Green Peach Aphid): Feeding/Contact Activity
Sunflower leaf discs were placed onto agar in a 24-well microtiter plate and sprayed with aqueous test solutions prepared from 10'000 ppm DMSO stock solutions. After drying, the leaf discs were infested with an aphid population of mixed ages. The samples were assessed for mortality 6 days after infestation.

[3] = test system: Bemisia tabaci (Cotton White Fly); test: Bemisia tabaci (Cotton White Fly): Feeding/Contact Activity; details: foliar, 144 h, application rate of 200 ppm, adult white flies on sprayed cotton leaf discs, 6 days after incubation
Description: Example B1: Bemisia tabaci (Cotton White Fly): Feeding/Contact Activity
Cotton leaf discs were placed on agar in 24-well microtiter plates and sprayed with aqueous test solutions prepared from 10'000 ppm DMSO stock solutions. After drying the leaf discs were infested with adult white flies. The samples were checked for mortality 6 days after incubation.

[4] = test system: Nilaparvata lugens (Brown Plant Hopper); test: Nilaparvata lugens (Brown Plant Hopper): Larvicide, Systemic into Water; details: 168 h, test rate of 12.5 ppm, rice plants in nutritive solution, N3 nymphs, 7 days after infestation
Description: Example B12: Nilaparvata lugens (Brown Plant Hopper): Larvicide, Systemic into Water
Rice plants cultivated in a nutritive solution were treated with the diluted test solutions into nourishing cultivation system. 1 day after application plants were infested with ˜20 N3 nymphs. 7 days after infestation samples were assessed for mortality and growth regulation.

[5] = test system: Plutella xylostella (Diamond Back Moth); test: Plutella xylostella (Diamond Back Moth), treated artificial diet; details: 192 h, application rate of 200 ppm, eggs on treated artificial diet, 8 days after infestation, read-out: effect in at least one of the two categories (mortality or growth inhibition)
Description: Example B5: Plutella xylostella (Diamond Back Moth)
24-well microtiter plates with artificial diet were treated with aqueous test solutions prepared from 10'000 ppm DMSO stock solutions by pipetting. After drying, Plutella eggs were pipetted through a plastic stencil onto a gel blotting paper and the plate was closed with it. The samples were assessed for mortality and growth inhibition in comparison to untreated samples 8 days after infestation.

[6] = test system: Spodoptera littoralis (Egyptian Cotton Leaf Worm); test: Spodoptera littoralis (Egyptian Cotton Leaf Worm), sprayed cotton leaf discs; details: foliar, 72 h, application rate of 200 ppm, L1 larvae on sprayed cotton leaf discs, 3 days after infestation, read-out: control (mortality, anti-feeding effect or growth inhibition)
Description: Example B8: Spodoptera littoralis (Egyptian Cotton Leaf Worm)
Cotton leaf discs were placed onto agar in 24-well microtiter plates and sprayed with aqueous test solutions prepared from 10'000 ppm DMSO stock solutions. After drying the leaf discs were infested with five L1 larvae. The samples were assessed for mortality, anti-feeding effect, and growth inhibition in comparison to untreated samples 3 days after infestation. Control of Spodoptera littoralis by a test sample is given when at least one of the categories mortality, anti-feedant effect, and growth inhibition is higher than the untreated sample.

[7] = test system: Diabrotica Balteata (Corn Root Worm); test: Diabrotica balteata (Corn Root Worm), sprayed maize sprouts; details: 96 h, application rate of 200 ppm, L2 larvae on sprayed maize sprouts, 4 days after infestation, read-out: effect in at least one of the two categories (mortality or growth inhibition)
Description: Example B2: Diabrotica Balteata (Corn Root Worm)
Maize sprouts placed onto an agar layer in 24-well microtiter plates were treated with aqueous test solutions prepared from 10'000 ppm DMSO stock solutions by spraying. After drying, the plates were infested with L2 larvae (6 to 10 per well). The samples were assessed for mortality and growth inhibition in comparison to untreated samples 4 days after infestation.

[8] = test system: Myzus persicae (Green Peach Aphid); test: Myzus persicae (Green Peach Aphid): Systemic Activity; details: 144 h, test rate of 24 ppm, roots of infested pea seedlings placed into test solutions, 6 days
Description: Example B7: Myzus persicae (Green Peach Aphid): Systemic Activity
Roots of pea seedlings infested with an aphid population of mixed ages were placed directly into aqueous test solutions prepared from 10'000 DMSO stock solutions. The samples were assessed for mortality 6 days after placing seedlings into test solutions.

[9] = test system: Nilaparvata lugens (Brown Plant Hopper); test: Nilaparvata lugens (Brown Plant Hopper): Larvicide, Feeding/Contact; details: 168 h, application rate of 50 ppm, N3 nymphs on sprayed rice plants, 7 days after the treatment
Description: Example B10: Nilaparvata lugens (Brown Plant Hopper): Larvicide, Feeding/Contact
Rice plants were treated with the diluted test solutions in a spray chamber. After drying plants were infested with ˜20 N3 nymphs. 7 days after the treatment samples were assessed for mortality and growth regulation.

[10] = test system: Nilaparvata lugens (Brown Plant Hopper); test: Nilaparvata lugens (Brown Plant Hopper): Igr, Feeding/Contact; details: 360 h, application rate of 50 ppm, sprayed rice plants, N3 nymphs, assessed for effect on F1 generation 15 days after the treatment
Description: Example B11: Nilaparvata lugens (Brown Plant Hopper): Igr, Feeding/Contact
Rice plants were treated with the diluted test solutions in a spray chamber. After drying plants were infested with ˜20 N3 nymphs. 7 days after treatment adults were removed and 15 days after the treatment samples were assessed for effect on F1 generation.

CCS(=O)(=O)c1cc(-n2ccc(Cl)n2)cnc1N1Cc2cnc(C(F)(F)F)cc2C1=O [Compound P13, 2-[5-(3-chloropyrazol-1-yl)-3-ethylsulfonyl-2-pyridyl]-6-(trifluoromethyl)-3H-pyrrolo[3,4-c]pyridin-1-one]
≥ 80%: percent effect (mortality or growth inhibition) at 200 ppm [1] | mortality at 200 ppm [2] | mortality at 200 ppm [3] | mortality at 12.5 ppm [4] | percent effect (mortality or growth inhibition) at 200 ppm [5] | percent control (mortality, anti-feedant effect or growth inhibition) at 200 ppm [6] | percent effect (mortality or growth inhibition) at 200 ppm [7]

CCS(=O)(=O)c1ccc(N(C)C(=O)NC)nc1N1Cc2cnc(C(F)(F)F)cc2C1=O [Compound P6, 1-[5-ethylsulfonyl-6-[1-oxo-6-(trifluoromethyl)-3H-pyrrolo[3,4-c]pyridin-2-yl]-2-pyridyl]-1,3-dimethyl-urea]
≥ 80%: percent effect (mortality or growth inhibition) at 200 ppm [1] | mortality at 200 ppm [2] | mortality at 200 ppm [3] | mortality at 12.5 ppm [4] | percent effect (mortality or growth inhibition) at 200 ppm [5] | mortality at 24 ppm [8] | percent effect (mortality or growth inhibition) at 200 ppm [7] | mortality at 50 ppm [9]

CCS(=O)(=O)c1ccc(NC)nc1N1Cc2cnc(C(F)(F)F)cc2C1=O [Compound P4, 2-[3-ethylsulfonyl-6-(methylamino)-2-pyridyl]-6-(trifluoromethyl)-3H-pyrrolo[3,4-c]pyridin-1-one]
≥ 80%: percent effect (mortality or growth inhibition) at 200 ppm [1] | mortality at 200 ppm [2] | mortality at 50 ppm [10] | mortality at 12.5 ppm [4] | percent effect (mortality or growth inhibition) at 200 ppm [5] | mortality at 24 ppm [8] | percent control (mortality, anti-feedant effect or growth inhibition) at 200 ppm [6] | percent effect (mortality or growth inhibition) at 200 ppm [7] | mortality at 50 ppm [9]

CCS(=O)(=O)c1cc(C(C)(C)C#N)cnc1N1Cc2cnc(C(F)(F)F)cc2C1=O [Compound P2, 2-[5-ethylsulfonyl-6-[1-oxo-6-(trifluoromethyl)-3H-pyrrolo[3,4-c]pyridin-2-yl]-3-pyridyl]-2-methyl-propanenitrile]
≥ 80%: percent effect (mortality or growth inhibition) at 200 ppm [1] | mortality at 200 ppm [2] | mortality at 200 ppm [3] | mortality at 50 ppm [10] | mortality at 12.5 ppm [4] | percent effect (mortality or growth inhibition) at 200 ppm [5] | mortality at 24 ppm [8] | percent control (mortality, anti-feedant effect or growth inhibition) at 200 ppm [6] | percent effect (mortality or growth inhibition) at 200 ppm [7] | mortality at 50 ppm [9]

CCS(=O)(=O)c1cc(Oc2ccccn2)cnc1N1Cc2cnc(C(F)(F)F)cc2C1=O [Compound P12, 2-[3-ethylsulfonyl-5-(2-pyridyloxy)-2-pyridyl]-6-(trifluoromethyl)-3H-pyrrolo[3,4-c]pyridin-1-one]
≥ 80%: percent effect (mortality or growth inhibition) at 200 ppm [1] | mortality at 200 ppm [2] | mortality at 12.5 ppm [4] | percent effect (mortality or growth inhibition) at 200 ppm [5] | mortality at 24 ppm [8] | percent control (mortality, anti-feedant effect or growth inhibition) at 200 ppm [6] | percent effect (mortality or growth inhibition) at 200 ppm [7]

CCS(=O)(=O)c1cc(C2(C#N)CC2)cnc1N1Cc2ncc(C(F)(F)F)cc2C1=O [Compound P11, 1-[5-ethylsulfonyl-6-[5-oxo-3-(trifluoromethyl)-7H-pyrrolo[3,4-b]pyridin-6-yl]-3-pyridyl]cyclopropanecarbonitrile]
≥ 80%: percent effect (mortality or growth inhibition) at 200 ppm [1] | mortality at 200 ppm [2] | mortality at 200 ppm [3] | mortality at 50 ppm [10] | mortality at 12.5 ppm [4] | percent effect (mortality or growth inhibition) at 200 ppm [5] | mortality at 24 ppm [8] | percent control (mortality, anti-feedant effect or growth inhibition) at 200 ppm [6] | percent effect (mortality or growth inhibition) at 200 ppm [7] | mortality at 50 ppm [9]

CCS(=O)(=O)c1ccc(N(C)C(=O)C2CC2)nc1N1Cc2cnc(C(F)(F)F)cc2C1=O [Compound P18, N-[5-ethylsulfonyl-6-[1-oxo-6-(trifluoromethyl)-3H-pyrrolo[3,4-c]pyriclin-2-yl]-2-pyridyl]-N-methyl-cyclopropanecarboxamide]
≥ 80%: percent effect (mortality or growth inhibition) at 200 ppm [1] | mortality at 200 ppm [2] | mortality at 200 ppm [3] | mortality at 50 ppm [10] | mortality at 12.5 ppm [4] | percent effect (mortality or growth inhibition) at 200 ppm [5] | mortality at 24 ppm [8] | percent control (mortality, anti-feedant effect or growth inhibition) at 200 ppm [6] | percent effect (mortality or growth inhibition) at 200 ppm [7] | mortality at 50 ppm [9]

CCS(=O)(=O)c1cc(C(F)(F)F)cnc1N1Cc2cnc(C(F)(F)F)cc2C1=O [Compound P10, 2-[3-ethylsulfonyl-5-(trifluoromethyl)-2-pyridyl]-6-(trifluoromethyl)-3H-pyrrolo[3,4-c]pyridin-1-one]
≥ 80%: percent effect (mortality or growth inhibition) at 200 ppm [1] | mortality at 200 ppm [2] | mortality at 200 ppm [3] | mortality at 50 ppm [10] | mortality at 12.5 ppm [4] | percent effect (mortality or growth inhibition) at 200 ppm [5] | mortality at 24 ppm [8] | percent control (mortality, anti-feedant effect or growth inhibition) at 200 ppm [6] | percent effect (mortality or growth inhibition) at 200 ppm [7] | mortality at 50 ppm [9]

CCS(=O)(=O)c1ccc(-n2cncn2)nc1N1Cc2cnc(C(F)(F)F)cc2C1=O [Compound P5, 2-[3-ethylsulfonyl-6-(1,2,4-triazol-1-yl)-2-pyridyl]-6-(trifluoromethyl)-3H-pyrrolo[3,4-c]pyridin-1-one]
≥ 80%: percent effect (mortality or growth inhibition) at 200 ppm [1] | mortality at 200 ppm [2] | mortality at 200 ppm [3] | mortality at 50 ppm [10] | mortality at 12.5 ppm [4] | percent effect (mortality or growth inhibition) at 200 ppm [5] | mortality at 24 ppm [8] | percent control (mortality, anti-feedant effect or growth inhibition) at 200 ppm [6] | percent effect (mortality or growth inhibition) at 200 ppm [7] | mortality at 50 ppm [9]

CCS(=O)(=O)c1cc(-n2ccc(C(F)(F)F)n2)cnc1N1Cc2cnc(C(F)(F)F)cc2C1=O [Compound P9, 2-[3-ethylsulfonyl-5-[3-(trifluoromethyl)pyrazol-1-yl]-2-pyridyl]-6-(trifluoromethyl)-3H-pyrrolo[3,4-c]pyridin-1-one]
≥ 80%: percent effect (mortality or growth inhibition) at 200 ppm [1] | mortality at 200 ppm [2] | mortality at 200 ppm [3] | mortality at 50 ppm [10] | mortality at 12.5 ppm [4] | percent effect (mortality or growth inhibition) at 200 ppm [5] | percent control (mortality, anti-feedant effect or growth inhibition) at 200 ppm [6] | percent effect (mortality or growth inhibition) at 200 ppm [7]
